Source: patent US20070054886A1, “Ras antagonists for treating neurodegenerative disorders” (RAMOT AT TEL AVIV UNIVERSITY, LTD., priority 2003, published 2007)
Where “and” joins values, the source holds several entries; their conditions need not be identical. Identical values can stand only once.

Experiments:
phospho-ERK = assay: ERK and phospho-ERK immunoblot in brains of CHI mice; type: in vivo, mouse; settings: 2 hrs after CHI
Method: ERK and phospho-ERK were determined in 30 μg of brain extract proteins by immunoblotting, ECL, and densitometry (Paz et al., 2000). ERK immunoblots were incubated with 1:2000 rabbit anti-ERK1/2 Ab (Santa-Cruz) and then with 1:1000 peroxidase-goat anti rabbit IgG. Phospho-ERK immunoblots were incubated with 1:10,000 mouse anti-phospho-ERK Ab (Sigma) and then with 1:10,000 peroxidase-goat anti-mouse IgG.

[1] = tested on: mice subjected to closed head injury (CHI); assay: Lesion volume after CHI in mice; type: in vivo, mouse; settings: day 7 after CHI
Method: Seven days after CHI, vehicle-treated (n=5) and FTS-treated (n=4) mice were decapitated and their brains were removed (within 1 minute), frozen in powdered dry ice, and kept at −70° C. until used. Consecutive 20-μ cryostat sections of the whole forebrain were cut in the coronal plane, and one in every ten sections (i.e. at intervals of 200μ) was thaw-mounted onto coated microscope glass slides.
The films were scanned and digitized using PhotoShop and a large bed Umax scanner, and saved in tiff format for accessibility to NIH image software. Using NIH Image routines, the standard curve was measured and used to calibrate regional brain measurements. Morphometry routines were used to measure the lesion area on each section where it was visible. The volume was calculated by multiplying the summed lesion areas by the distance between sections (0.2 mm).

[2] = tested on: mice subjected to closed head injury (CHI); assay: Neurobehavioral evaluation (neurological severity score, NSS) of CHI mice; type: in vivo, mouse
Excerpt: The neurological severity score (NSS) is a tool for assessing an animal's functional status. It is based on the ability of the animal to perform different motor and behavioral tasks representing motor ability, balancing, and alertness (Beni-Adani et al., 2001). Scores range from zero, achieved by healthy uninjured animals, to a maximum of 10, indicating severe neurological dysfunction, with failure of all tasks. The NSS obtained 1 hr after trauma reflects the initial severity of injury and is inversely correlated with neurological outcome. Animals were evaluated 1 hour after CHI, and again at 24 and 48 hrs and at 5 and 7 days. To assess the effect of FTS on neurological recovery, mice were randomly assigned to treatment with either FTS or vehicle (n=10 per group), administered immediately after the initial NSS evaluation. Each animal was assessed by an observer who was blinded to the treatment it had received. The extent of recovery (ΔNSS) was calculated as the difference between the NSS at 1 hr and at any subsequent time point. Thus, a higher ΔNSS reflects better recovery. This parameter therefore serves as a tool for evaluation of drug effects.

[3] = tested on: primary hippocampal and cortical neuronal cultures; type: cell-based, rat
Method: Hippocampal and cortical neuronal cultures were prepared from embryonic rat brain essentially as described by Mattson (Mattson P M, Barger S W, Begley J M and Mark R J, Methods Cell Biol 1995; 46: 187-216). Briefly, Sprague Dawley embryos (17-18 days of gestation) were removed and their brains were dissected under the hood and kept in cold in sterile HEPES buffered Hank's balanced salt solution (HBBS) lacking Ca^2+ and Mg^2+, containing 10 μg/ml gentamicin sulfate. The brain regions under study were dissected and cells were dissociated by mild 0.25% trypsin, counted and the dissociation buffer was replaced by culture medium as detailed in Mattson. The cells were plated on poly-L-lysine ([…] solution) coated 24 well plates in Neurobasal medium (Gibco, Grand Island, N.Y. # 2110 3-049) prepared as detailed in Mattson. Hippocampal or cortical cells were plated at a density of 5×10^5 cells per well in 24 well plates and grown in 1 ml medium. Cultures were a kept in humidified 95%, 5% air/CO2 incubator at 37 C for 7 days and then used for the experiments.
Cells were treated with 25 μM FTS either 24 h prior to glutamate (200 μM) treatment or immediately after glutamate treatment. Assays were performed in triplicates. Twenty-four hours after the glutamate treatment, the cells were subjected to viability-cytotoxicity assay using the Live/Dead reagent kit (L-7013, Molecular Probes) essentially as described by the manufacturer. Fluorescent images for live cells (Syto 10, green) and of dead cells (DEAD red) were collected with appropriate filters within 1 h of staining. The number of live cells was estimated by counting the green-labeled cells in 3 fields in each well. The number of live cells in each of the triplicate experimental samples was averaged. These values were used to estimate the percent of cell death comparing the glutamate treated cells (with or without FTS) to untreated controls. The read labeled dead cells could not be used for accurate estimation of cell death under the conditions used because unsynchronized cell-death leads to disintegration of dead cells resulting in inaccurate estimation of the number of dead cells.
In the typical experiments, either hippocampal or cortical neuronal culture was exposed to 25 μM FTS 24 h prior to the addition of glutamate. […] The cells were then exposed to 200 μM glutamate for 30 min. The medium was replaced by glutamate-free medium and 24 h later the cells were subjected to the Live/Dead assay. […] This level of cell death was used as a reference point in all experiments.

[4] = cited from earlier work
[5] = 25 μM FTS 24 h prior to 200 μM glutamate for 30 min, Live/Dead assay 24 h later

SMILES: CC(C)=CCC/C(C)=C/CC/C(C)=C/CSc1ccccc1C(=O)O [FTS, farnesyl-thiosalicylic acid]
- effect on amounts of total ERK (phospho-ERK): Neither inhibitor altered
- inhibition (reduction) of phospho-ERK, right (contra-lateral) hemisphere (phospho-ERK; drug i.p. 1 hr after CHI, FTS 5 mg/kg, MK-801 0.5 mg/kg or 1 mg/kg): 73.2±8.3% and 73±8%
- mean lesion volume ([1]; FTS 5 mg/kg 1 hr after CHI, mean±SD of 4 animals, control 155±41 μL, p<0.07): 87 ± 53 µL
- reduction in lesion volume (lesion size) ([1]; FTS 5 mg/kg vs vehicle, trend, p<0.07): 50%
- lesion volume, range ([1]; FTS 5 mg/kg, 4 animals): 37 to 161 µL
- median recovery after seven days (ΔNSS) ([2]; mice processed for autoradiography and histology (4 FTS-treated), vehicle 0, p<0.05): 2
- mean ΔNSS on day 7 after injury ([2]; mice, FTS 5 mg/kg i.p. 1 hr after CHI, n=10, controls 1.7): 4.2
- NSS 1 hour after injury ([2]; mice, baseline before treatment, FTS-treatment group, n=10, mean±SD, scale 0-10): 6.7±0.3
- reduction of CHI-induced neurological deficits / improvement of neurological status (extent of recovery) ([2]; mice, single dose FTS 5 mg/kg, up to 7 days after CHI, P<0.0001): 60%
- toxic effects of FTS alone on cultured hippocampal or cortical neurons [3]: no toxic effects
- toxic effect of glutamate in cortical cultures [3, 5]: reduced the toxic effect of glutamate
- toxic effect of glutamate in hippocampal cultures [3, 5]: markedly reduced
- neuroprotective effect against the glutamate toxicity ([3]; hippocampal and cortical cultures, 25 μM FTS 24 h prior to 200 μM glutamate): 70%
- percent cell death relative to glutamate treated cells (100% cell death) ([3]; hippocampal and cortical cultures, 25 μM FTS 24 h prior to 200 μM glutamate, FIG. 10): 30%
- side effects at the 5 mg/kg dose in animal models of neoplasticity ([4]; 5 mg/kg FTS, previous studies (Jansen et al., 1999; Kloog et al., 1999)): without inadvertent side effects
- toxicity and adverse side effects in animals ([4]; Kloog et al., 1999): not to be toxic and have no adverse side effects
